# Measurements from paper PMC12081497, “Design, synthesis, and anti-breast cancer activity evaluation of novel 3-cyanopyridine derivatives as PIM-1 inhibitors” (Molecular Diversity, 2024).
# Where two headings read alike, the source gives them in different places.
# How the values were obtained:
# [1] = tested on: MCF-7 human cancer cell line; test: In vitro anti-proliferative MTT assay; assay type: cell-based
# Description: In the present study, all synthesized cyanopyridine hybrids were subjected to in vitro cytotoxicity testing using the MTT assay method against MCF-7 human cancer.
# All cell lines were maintained in RPMI1640 medium containing 10% FBS at 37 °C in 5% CO2 humidified incubator. Cell proliferation assay was determined by the MTT (3-[4,5-dimethyl-2-thiazolyl]-2,5- diphenyl-2H-tetrazolium bromide) method. Briefly, cells were plated in triplicate wells (3–5 × 10^4 cells/well) of 96-well flat-bottomed plates and incubated overnight prior to drug exposure and then treated with different concentrations of the tested compounds for 48 h. After that, 20 μL of MTT reagent at a final concentration of 0.5 mg/mL was added to each well. Cells were then incubated for 2 h with MTT, after which 100 μL of DMSO solution was added to dissolve the formazan salt resulting from the reduction of MTT and the absorbance was read at 570 nm using an automatic plate reader. The IC50 values were calculated according to inhibition ratios from three independent experiments.
# PIM-1 kinase = molecular target: T1, PIM-1 kinase (Homo sapiens, UniProt P11309); conditions: cited from earlier work
# T1 construct: purchased Promega V4032
# [2] = Homo sapiens, MCF7, 48 h, MTT, MCF-7, 48 h treatment, read-out: Cytotoxicity IC50, SD (±), MCF7
# [3] = MTT, MCF-7, 48 h treatment, read-out: Cytotoxicity IC50, SD (±), MCF7
# T1 sequence (P11309 whole entry): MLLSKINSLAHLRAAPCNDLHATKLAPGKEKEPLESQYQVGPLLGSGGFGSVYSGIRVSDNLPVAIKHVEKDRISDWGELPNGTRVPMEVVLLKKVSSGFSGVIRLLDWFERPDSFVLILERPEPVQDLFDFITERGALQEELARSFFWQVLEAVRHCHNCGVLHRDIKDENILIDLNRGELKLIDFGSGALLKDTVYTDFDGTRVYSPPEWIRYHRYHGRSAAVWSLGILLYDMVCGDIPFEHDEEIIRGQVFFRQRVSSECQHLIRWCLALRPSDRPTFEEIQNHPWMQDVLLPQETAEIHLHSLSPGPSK
melting point,Compound,IC50 [1],"IC50 [1, 2]","IC50 [1, 3]",IC50 (PIM-1 kinase)
–,"2-(4-(3-Cyano-2-oxo-6-phenyl-1,2-dihydropyridin-4-yl)-2-methoxyphenoxy)-N-phenylacetamide [8a]",14.3 ± 0.59 µM,–,–,–
–,"2-(4-(6-(4-Chlorophenyl)-3-cyano-2-oxo-1,2-dihydropyridin-4-yl)-2-methoxyphenoxy)-N-phenylacetamide [8d]",18 ± 0.74 µM,–,–,–
–,"2-(4-(6-(4-Chlorophenyl)-3-cyano-2-oxo-1,2-dihydropyridin-4-yl)-2-methoxyphenoxy)-N-phenylacetamide [9d]",2.05 µM,–,–,–
276 to 278 °C,"COc1cc(-c2cc(-c3ccccc3)[nH]c(=O)c2C#N)ccc1OCC(=O)Nc1ccccc1 [7a, 2-(4-(3-Cyano-2-oxo-6-phenyl-1,2-dihydropyridin-4-yl)-2-methoxyphenoxy)-Nphenylacetamide]",–,8.06 ± 0.33 µM,8.06 ± 0.33 µM,–
–,"COc1cccc(-c2cc(-c3ccc(OCC(=O)Nc4ccccc4)c(OC)c3)c(C#N)c(=O)[nH]2)c1 [7b, 2-(4-(3-Cyano-6-(3-methoxyphenyl)-2-oxo-1,2-dihydropyridin-4-yl)-2methoxyphenoxy)-N-phenylacetamide]",–,56.8 ± 2.34 µM,–,–
284 to 286 °C,"COc1ccc(-c2cc(-c3ccc(OCC(=O)Nc4ccccc4)c(OC)c3)c(C#N)c(=O)[nH]2)cc1 [7c, 2-(4-(3-Cyano-6-(4-methoxyphenyl)-2-oxo-1,2-dihydropyridin-4-yl)-2-methoxyphenoxy)-N-phenylacetamide]",–,7.72 ± 1.69 µM,7.73 ± 0.32 µM,–
276 to 278 °C,"COc1cc(-c2cc(-c3ccc(Cl)cc3)[nH]c(=O)c2C#N)ccc1OCC(=O)Nc1ccccc1 [7d, 2-(4-(6-(4-Chlorophenyl)-3-cyano-2-oxo-1,2-dihydropyridin-4-yl)-2methoxyphenoxy)-N-phenylacetamide]",–,41.1 ± 1.69 µM,–,–
–,"COc1cc(-c2cc(-c3ccc(Br)cc3)[nH]c(=O)c2C#N)ccc1OCC(=O)Nc1ccccc1 [7e, 2-(4-(6-(4-Bromophenyl)-3-cyano-2-oxo-1,2-dihydropyridin-4-yl)-2-methoxyphenoxy)-N-phenylacetamide]",–,21.9 ± 0.9 µM,–,–
296 to 298 °C,"COc1cc(-c2cc(-c3ccco3)[nH]c(=O)c2C#N)ccc1OCC(=O)Nc1ccccc1 [7f, 2-(4-(3-Cyano-6-(furan-2-yl)-2-oxo-1,2-dihydropyridin-4-yl)-2-methoxyphenoxy)-N-phenylacetamide]",–,3.98 µM,3.98 ± 0.16 µM,–
293 to 295 °C,"COc1cc(-c2cc(-c3cccs3)[nH]c(=O)c2C#N)ccc1OCC(=O)Nc1ccccc1 [7g, 2-(4-(3-Cyano-2-oxo-6-(thiophen-2-yl)-1,2-dihydropyridin-4-yl)-2-methoxyphenoxy)-N-phenylacetamide]",–,1.92 ± 0.08 µM,1.93 ± 0.08 µM,–
–,"COc1cc(-c2cc(-c3ccncc3)[nH]c(=O)c2C#N)ccc1OCC(=O)Nc1ccccc1 [7i, 2-(4-(3-Cyano-2-oxo-6-(pyridin-4-yl)-1,2-dihydropyridin-4-yl)-2-methoxyphenoxy)-N-phenylacetamide]",–,23.9 ± 0.98 µM,–,–
> 300 °C,"COc1cc(-c2cc(-c3ccc4ccccc4c3)[nH]c(=O)c2C#N)ccc1OCC(=O)Nc1ccccc1 [7j, 2-(4-(3-Cyano-6-(naphthalen-2-yl)-2-oxo-1,2-dihydropyridin-4-yl)-2-methoxyphenoxy)-N-phenylacetamide]",–,20.1 ± 0.83 µM,–,–
158 to 160 °C,"COc1cccc(-c2cc(-c3ccc(OCC(=O)Nc4ccccc4)c(OC)c3)c(C#N)c(OC)n2)c1 [8b, 2-(4-(3-Cyano-2-methoxy-6-(3-methoxyphenyl)-pyridin-4-yl)-2-methoxy-phenoxy)-N-phenylacetamide]",–,36.2 ± 1.49 µM,–,–
188 to 190 °C,"COc1ccc(-c2cc(-c3ccc(OCC(=O)Nc4ccccc4)c(OC)c3)c(C#N)c(OC)n2)cc1 [8c, 2-(4-(3-Cyano-2-methoxy-6-(4-methoxyphenyl)pyridin-4-yl)-2-methoxyphenoxy)-N-phenylacetamide]",–,3.74 ± 0.15 µM,3.75 ± 0.15 µM,–
–,"COc1cc(-c2cc(-c3ccc(Br)cc3)nc(OC)c2C#N)ccc1OCC(=O)Nc1ccccc1 [8e, 2-(4-(6-(4-Bromophenyl)-3-cyano-2-methoxypyridin-4-yl)-2-methoxyphenoxy)-N-phenylacetamide]",–,42.6 ± 1.75 µM,–,–
193 to 195 °C,COc1cc(-c2cc(-c3ccc4ccccc4c3)nc(OC)c2C#N)ccc1OCC(=O)Nc1ccccc1 [8f],–,–,–,–
178 to 180 °C,"COc1cc(-c2cc(-c3ccco3)nc(OC)c2C#N)ccc1OCC(=O)Nc1ccccc1 [8g, 2-(4-(3-Cyano-6-(furan-2-yl)-2-methoxypyridin-4-yl)-2-methoxyphenoxy)-N-phenyl acetamide]",–,21.3 ± 0.87 µM,–,–
–,"COc1cc(-c2cc(-c3ccccc3)n(C)c(=O)c2C#N)ccc1OCC(=O)Nc1ccccc1 [9a, 2-(4-(3-Cyano-1-methyl-2-oxo-6-phenyl-1,2-dihydropyridin-4-yl)-2-methoxyphenoxy)-N-phenylacetamide]",–,9.1 ± 0.37 µM,9.1 ± 0.37 µM,–
–,"COc1cccc(-c2cc(-c3ccc(OCC(=O)Nc4ccccc4)c(OC)c3)c(C#N)c(=O)n2C)c1 [9b, 2-(4-(3-Cyano-6-(3-methoxyphenyl)-1-methyl-2-oxo-1,2-dihydropyridin-4-yl)-2-methoxyphenoxy)-N-phenylacetamide]",–,8.79 ± 0.36 µM,8.8 ± 0.36 µM,–
–,"COc1ccc(-c2cc(-c3ccc(OCC(=O)Nc4ccccc4)c(OC)c3)c(C#N)c(=O)n2C)cc1 [9c, 2-(4-(3-Cyano-6-(4-methoxyphenyl)-1-methyl-2-oxo-1,2-dihydropyridin-4-yl)-2-methoxyphenoxy)-N-phenylacetamide]",–,26.1 ± 1.07 µM,–,–
–,"COc1cc(-c2cc(-c3ccc(Br)cc3)n(C)c(=O)c2C#N)ccc1OCC(=O)Nc1ccccc1 [9e, 2-(4-(6-(4-Bromophenyl)-3-cyano-1-methyl-2-oxo-1,2-dihydropyridin-4-yl)-2-methoxyphenoxy)-N-phenylacetamide]",–,18.3 ± 0.75 µM,–,–
193 to 195 °C,"COc1cc(-c2cc(-c3ccc4ccccc4c3)n(C)c(=O)c2C#N)ccc1OCC(=O)Nc1ccccc1 [9f, 2-(4-(3-Cyano-1-methyl-6-(naphthalen-2-yl)-2-oxo-1,2-dihydropyridin-4-yl)-2-methoxyphenoxy)-N-phenylacetamide]",–,41.4 ± 1.7 µM,–,–
170 to 172 °C,"COc1cc(-c2cc(-c3ccco3)n(C)c(=O)c2C#N)ccc1OCC(=O)Nc1ccccc1 [9g, 2-(4-(3-Cyano-6-(furan-2-yl)-1-methyl-2-oxo-1,2-dihydropyridin-4-yl)-2-methoxyphenoxy)-N-phenylacetamide]",–,13.2 ± 0.54 µM,–,–
–,N#CC1=C(c2cc3ccccc3nc2Cl)C=C(c2ccc(Br)cc2)NC1Cl (stereo not drawn) [C],–,–,–,0.46 µM
–,"COc1cccc2c1C(=O)c1c(O)c3c(c(O)c1C2=O)C[C@@](O)(C(=O)CO)C[C@@H]3O[C@H]1C[C@H](N)[C@H](O)[C@H](C)O1 [Doxorubicin, reference compound]",–,11.5 ± 0.47 µM,11.5 ± 0.47 µM,–
–,COc1nc(-c2ccc(OCc3ccccc3)cc2)cc(-c2ccc(N(C)C)cc2)c1C#N [F],–,–,–,0.13 µM
284 to 286 °C,"COc1cc(-c2cc(-c3ccc[n+](C)c3)nc(OC)c2C#N)ccc1OCC(=O)Nc1ccccc1.[I-] [compound 10, 5-cyano-6-methoxy-4-(3-methoxy-4-(2-oxo-2-(phenylamino)ethoxy)phenyl)-1'-methyl-2,3'-bipyridin-1'-iumiodide]",–,2.13 ± 0.09 µM,2.14 ± 0.09 µM,–
